Test results: PMC4764977, “AZD8797 is an allosteric non-competitive modulator of the human CX3CR1 receptor” (Biochemical Journal, 2016)

Columns and labels:
[1] = molecular target: T1, CX3CR1 (Homo sapiens, UniProt P49238); assay: [3H]AZD8797 kinetic radioligand binding, CHO-hCX3CR1 membranes; design: host or cells: CHO-K1
T1 sequence (P49238 1-355): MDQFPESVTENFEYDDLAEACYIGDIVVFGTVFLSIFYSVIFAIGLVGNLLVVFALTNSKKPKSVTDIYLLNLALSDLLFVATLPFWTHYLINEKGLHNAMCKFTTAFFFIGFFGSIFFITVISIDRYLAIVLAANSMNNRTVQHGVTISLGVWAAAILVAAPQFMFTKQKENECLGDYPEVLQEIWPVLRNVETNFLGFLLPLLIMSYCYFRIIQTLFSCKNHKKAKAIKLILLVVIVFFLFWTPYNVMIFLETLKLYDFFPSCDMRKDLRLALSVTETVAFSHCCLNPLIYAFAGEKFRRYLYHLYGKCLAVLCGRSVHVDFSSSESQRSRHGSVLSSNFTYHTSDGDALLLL
Protocol: Assays were performed as described under equilibrium binding studies with the additions stated below. Association experiments on [^3H]AZD8797 were performed by adding 1 · Kd of radioligand in assay buffer in a 96-well plate. The reactions were started by addition of CHO-hCX3CR1 membranes at different time points and then incubated for between 1.5 min and 2 h at room temperature before being filtered. For the [^3H]AZD8797 dissociation experiments 1 · Kd of radioligand was incubated with CHO-hCX3CR1 membranes for 1 h at room temperature before starting the dissociation with the addition of 10 μM unlabelled AZD8797. The reactions were incubated for between 2.5 min and 3 h at room temperature before being filtered.
For the association experiments, the radioligand data were fitted to the following monophasic exponential association equation and the association rate (kon) was calculated using the added amounts of radioligand (L) and dissociation rate (koff) as constants. koff was measured in separate dissociation experiments.
The dissociation data were fitted to the monophasic exponential decay equation: […]
where Y0 is the binding (cpm) at time zero, X is the time and NS is the (non-specific) binding at infinite times. Half-life could then be calculated by dividing ln (2) by koff. Multiple compound dissociation data were fitted to the biphasic exponential decay equation: […]

[2] = molecular target: T1, CX3CR1; assay: 125I-CX3CL1 competition assay, HEK293 cells co-transfected with Gqi5-protein (Karlstrom et al.); type: binding; design: host or cells: CHO-K1; conditions: HEK293 Gqi5 vs CHO-hCX3CR1 membranes

`CC(C)C[C@H](CO)Nc1nc(S[C@@H](C)c2ccccc2)nc2nc(N)sc12` [AZD8797] was tested, and the koff ([1]; dissociation started with 10 μM unlabelled AZD8797, n=2) was 0.0007 s⁻¹, the kon ([1]; from kobs (n=5) and koff, room temperature) was 233000 M⁻¹ s⁻¹ and the Dissociation half-life ([1]; from koff) was “approximately 17 min”. The Kd ([1]; koff/kon, read-out: Kd from rate constants) was 2.9 nM and the “Higher affinity than in this paper's 125I-CX3CL1 competition assay” value [2] was about 100 fold.
